Measurements published in US5446039A, “Therapeutic benzazapine compounds” (Imperial Chemical Industries, PLC, priority 1991, dated 1995).

Key:
[1] = biological target: T1, glycine receptor of the NMDA receptor complex (Rattus norvegicus, UniProt P35439); assay: [3H]-glycine binding assay at the N-methyl-D-aspartate receptor, rat neuronal synaptic membranes (cortices and hippocampi); parameters: species or system male Sprague-Dawley rats; conditions: 20 nM [3H]-glycine, pH 7.1, 30 minutes at 4° C.
T1 construct: Freshly dissected cortices and hippocampi are homogenized in 0.32 M sucrose; from tissue; host or cells: synaptic membranes of cortices and hippocampi of adult male Sprague-Dawley rats
Description: (§1) The actions of compounds of formula I as antagonists at the glycine receptor of the NMDA receptor complex can be shown by standard tests such as the [^3 H]-glycine binding assay, by functional assays in vitro such as tests for measuring glutamate evoked contractions of the guinea pig ileum, and by tests in vivo such as ischemia induced by carotid occlusion in the gerbil model.
In the [^3 H]-glycine binding assay, neuronal synaptic membranes are prepared from adult (about 250 g) male Sprague-Dawley rats. Freshly dissected cortices and hippocampi are homogenized in 0.32 M sucrose (110 mg/mL). Synaptosomes are isolated by centrifuga-tion (1000×g, 10 min), the supernatant is pelleted (20,000×g, 20 min) and resuspended in double-distilled water. The suspension was centrifuged for 20 minutes at 8,000×g. The resulting supernatant and buffy coat are washed twice (48,000×g, 10 mins, resuspension in double-deionized water). The final pellet is quickly frozen (dry iceethanol bath) under double-deionized water and stored at -70° C.
On the day of the experiment, thawed synaptic membranes are homogenized with a Brinkmann Polytron (tm, Brinkmann Instruments, Westbury, N.Y.) tissue homogenizer in 50 mM tris(hydroxymethyl)aminomethane citrate, pH 7.1. The membranes are incubated with 0. 04% Sufact-AMPS X100 (tm, Pierce, Rockford, Ill.) in buffer for 20 minutes at 37° C. and washed six times by centrifugation (48,000×g, 10 min) and resuspended in buffer. The final pellet is homogenized at 200 mg wet weight/mL of the buffer for the binding assay.
For [^3 H]-glycine binding at the N-methyl-D-aspartate receptor, 20 nM [^3 H]-glycine (40-60 Ci/mmol, New England Nuclear, Boston, Mass.) is incubated with the membranes suspended in 50 mM tris (hydroxymethyl)aminomethane citrate, pH 7.1 for 30 minutes at 4° C. Glycine, 1 mM, is used to define the nonspecific binding. […] Radioactivity is estimated by liquid scintillation counting. […]

[2] = tested on: neuronal damage in the hippocampus; assay: gerbil ischemic model (bilateral carotid occlusion), hippocampal neuronal damage rating; assay type: in vivo, adult female Mongolian gerbils
From the text: as §1
When testing in vivo using the gerbil ischemic model, adult female Mongolian gerbils (50-70 g) are anesthetized with 2 to 3% halothane. The bilateral common carotid arteries at the neck are exposed and occluded with microaneurysm clips. After 10 min (unless specified), the clips are removed and the blood flow through the carotid arteries is restored and the skin is sutured. Test compounds are administered intraperitoneally both pre- and post-occlusion, for example 45 minutes before and 5 minutes after occlusion of the carotid arteries. Sham-operated animals are treated in the same manner except that the arteries are not clamped. Gross behavioral observations along with motor activity are recorded for 2 hr on the first (24 hr) day following the occlusion. After 4 days, subjects are sacrificed (decapitation), brains are removed, fixed, sectioned and stained with hematoxylin/eosin and cresyl violet.
The brain sections are rated for neuronal damage in the hippocampus using the following rating scale:
1=slight damage (up to 25%)--restricted CA1/subiculum border
2=moderate damage (up to 50%)--obvious damage, restricted to less than half of CA1 field
3=marked damage (up to 75%)--involving greater than half of CA1 field
4=damage extending beyond CA1 field
Results can be reported as the percentage of neuroprotection afforded by a particular dose and dosing regimen.
Sections (7 micron) are evaluated from each brain. Occasionally, asymmetrical damage may be noted and the rating assigned is the average score of the two sides. The average brain damage rating score for each group is recorded, and the damage scores of the drug treated group are compared to the vehicle-treated group using Wilcoxcon-Rank Sum test.
Typical values in this test for compounds according to the invention are illustrated by the following results: for the compound of Example 1, 57% neuroprotection (relative to sham-operated control) when dosed twice with 20 mg/kg body weight intraperitoneally (ip) according to the above regimen; 44% neuroprotection when dosed with 30 mg/kg body weight ip three times at 15, 30, and 45 minutes after induction of ischemia; for the compound of Example 3, 83% neuroprotection when dosed twice with 30 mg/kg body weight ip according to the above regimen; for the compound of Example 1a, 78% neuroprotection when dosed twice with 20 mg/kg body weight ip according to the above regimen.

[3] = tested on: NMDA receptor channel complex; assay: inhibition of glutamate evoked contractions of the guinea pig ileum (longitudinal muscle/myenteric plexus); assay type: cell-based; conditions: 100 μM glutamate; test compound added 5 minutes before the glutamate
From the text: as §1
For glutamate evoked contractions of the guinea pig ileum, the methodology is as described previously (Luzzi et. al., Br. J. Pharmacol., 95, 1271-1277 (1989). The longitudinal muscle and associated myenteric plexus are removed and placed in oxygenated modified Krebs-Henseleit solution (118 mM NaCl, 4.7 mM KCl, 2.5 mM CaCl2, 1.2 mM KH2 PO4, 25 mM NaHCO3, and 11 mM glucose). Tissues are suspended on glass rods in organ baths under a resting tension of 0.5 g. After an initial depolarization with 80 mM potassium to remove possible blockade of the NMDA receptor channel complex with magnesium, twitch responses are evoked with 100 μM glutamate. Isometric mechanical responses are recorded. Tissues are equilibrated for at least 2 hours prior to addition of compounds.
A dose response curve for the effect of the unknown on the magnitude of the glutamate-evoked contractions is generated. Glutamate-evoked contractions are generated at 20 minute intervals, with the test compound added 5 minutes before the glutamate. […]

[4] = dosed twice with 20 mg/kg ip, pre- and post-occlusion (e.g. 45 min before and 5 min after), Example 1: relative to sham-operated control

## O=c1[nH]c2cc(Cl)ccc2c(=O)cc1O [Example 1, 8-Chloro-2,5-dihydro-2,5-dioxo-3-hydroxy-1H-benz[b]azepine]
[1]
  IC50: 30 nM
[2]; 30 mg/kg ip three times at 15, 30, and 45 minutes after induction of ischemia
  neuroprotection: 44%
[2]; [4]
  neuroprotection: 57%
[3]
  IC50: 110 nM

## COc1cc(=O)c2ccc(Cl)cc2[nH]c1=O [Example 1a, 8-Chloro-2,5-dihydro-2,5-dioxo-3-methoxy-1H-benz[b]azepine]
[1]
  IC50: 1000 nM
[2]; [4]
  neuroprotection: 78%

## O=c1[nH]c2cc(Br)ccc2c(=O)cc1O [Example 3, 8-bromo-2,5-dihydro-2,5-dioxo-3-hydroxy-1H-benz[b]azepine]
[1]
  IC50: 97 nM
[2]; dosed twice with 30 mg/kg ip, pre- and post-occlusion (e.g. 45 min before and 5 min after)
  neuroprotection: 83%
[3]
  IC50: 1000 nM
